According to ChEMBL document CHEMBL4376865, “Discovery and Characterization of 1H-1,2,3-Triazole Derivatives as Novel Prostanoid EP4 Receptor Antagonists for Cancer Immunotherapy” (J Med Chem, 2020):
pIC50: −log10 of the molar value.

How the values were obtained:
[1] = in vivo; conditions: BALB/c, mouse, iv, 1 mg/kg
[2] = tested on: CT26; experiment: Antitumor activity against mouse CT26 cells xenografted in BALB/c mouse assessed as tumor growth inhibition at 150 mg/kg, po administerd daily and measured after two weeks; conditions: 336 h, read-out: TGI
[3] = tested on: CT26; experiment: Antitumor activity against mouse CT26 cells xenografted in BALB/c mouse assessed as tumor growth inhibition at 16 mg/kg, po administerd daily and measured after two weeks; conditions: 336 h, read-out: TGI
[4] = molecular target: Prostaglandin E2 receptor EP4 subtype (Homo sapiens, UniProt P35408); experiment: Inhibition of human EP4 transfected in human HEK293 cells co transfected with SmBit-beta-arrestin. assessed as reduction in PGE2 induced-beta-arrestin recruitment by NanoBiT beta-arrestin recruitment assay
[5] = in vitro; conditions: human, liver microsomes
[6] = in vitro; conditions: human, liver microsomes; remark: listed apart in the source
[7] = in vivo; conditions: BALB/c, mouse, iv, 1 mg/kg; remark: listed apart in the source
[8] = molecular target: CYP2C9 (Homo sapiens, UniProt P11712); experiment: Inhibition of CYP2C9 in human liver microsomes at 20 uM using tolbutamide as substrate incubated for 60 mins by HPLC analysis relative to control; type: ADME; conditions: probe tolbutamide
[9] = molecular target: Prostaglandin E2 receptor EP2 subtype (Homo sapiens, UniProt P43116)
Description: Antagonist activity at human EP2 expressed in CHO cells coexpressing G16-alpha assessed as intracellular calcium flux preincubated for 15 mins followed by addition of PGE2 by calcium flux assay

[10] = Clearance in BALB/c mouse at 1 mg/kg, iv measured upto 24 hrs by LC-MS/MS analysis; conditions: in vivo
[11] = Metabolic stability in CD1 mouse liver microsomes assessed as compound remaining at 10 uM incubated for 1 hr
[12] = in vitro; conditions: CD1, mouse, liver microsomes
[13] = Apparent volume of distribution in BALB/c mouse at 1 mg/kg, iv measured upto 24 hrs by LC-MS/MS analysis; conditions: in vivo
[14] = in vivo; conditions: BALB/c, mouse, po, 5 mg/kg
Description: Oral bioavailability in BALB/c mouse at 5 mg/kg measured upto 24 hrs by LC-MS/MS analysis

[15] = molecular target: T1, CYP2B6 (Homo sapiens, UniProt P20813); experiment: Inhibition of CYP2B6 in human liver microsomes at 20 uM incubated for 60 mins by HPLC analysis relative to control; type: ADME
T1 sequence (P20813 whole entry): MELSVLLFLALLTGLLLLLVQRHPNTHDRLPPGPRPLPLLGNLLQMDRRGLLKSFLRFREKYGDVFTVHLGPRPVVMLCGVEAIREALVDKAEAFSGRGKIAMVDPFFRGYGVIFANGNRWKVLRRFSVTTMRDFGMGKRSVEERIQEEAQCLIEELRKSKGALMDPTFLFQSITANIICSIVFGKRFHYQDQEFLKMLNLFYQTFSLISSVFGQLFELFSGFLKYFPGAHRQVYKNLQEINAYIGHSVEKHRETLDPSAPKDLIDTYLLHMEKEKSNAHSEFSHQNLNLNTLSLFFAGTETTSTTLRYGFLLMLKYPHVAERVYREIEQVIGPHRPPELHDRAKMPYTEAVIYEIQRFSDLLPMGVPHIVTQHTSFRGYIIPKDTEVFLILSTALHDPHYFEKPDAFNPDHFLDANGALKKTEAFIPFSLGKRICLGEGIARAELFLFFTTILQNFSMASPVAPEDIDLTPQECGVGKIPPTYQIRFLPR

CYP2C9, sequence (P11712 whole entry): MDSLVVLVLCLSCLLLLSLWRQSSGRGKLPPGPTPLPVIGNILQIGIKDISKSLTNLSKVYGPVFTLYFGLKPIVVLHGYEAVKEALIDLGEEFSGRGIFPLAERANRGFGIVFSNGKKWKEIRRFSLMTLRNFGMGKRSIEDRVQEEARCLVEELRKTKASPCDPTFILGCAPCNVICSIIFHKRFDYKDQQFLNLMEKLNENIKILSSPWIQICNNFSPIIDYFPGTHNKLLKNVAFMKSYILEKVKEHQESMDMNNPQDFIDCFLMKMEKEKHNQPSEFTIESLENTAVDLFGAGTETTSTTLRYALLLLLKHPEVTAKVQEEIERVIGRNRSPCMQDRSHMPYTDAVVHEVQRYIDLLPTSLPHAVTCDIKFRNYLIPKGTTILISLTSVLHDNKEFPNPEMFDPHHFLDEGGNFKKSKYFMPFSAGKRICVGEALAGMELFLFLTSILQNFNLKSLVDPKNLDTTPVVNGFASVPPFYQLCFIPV
Prostaglandin E2 receptor EP2 subtype, sequence (P43116 whole entry): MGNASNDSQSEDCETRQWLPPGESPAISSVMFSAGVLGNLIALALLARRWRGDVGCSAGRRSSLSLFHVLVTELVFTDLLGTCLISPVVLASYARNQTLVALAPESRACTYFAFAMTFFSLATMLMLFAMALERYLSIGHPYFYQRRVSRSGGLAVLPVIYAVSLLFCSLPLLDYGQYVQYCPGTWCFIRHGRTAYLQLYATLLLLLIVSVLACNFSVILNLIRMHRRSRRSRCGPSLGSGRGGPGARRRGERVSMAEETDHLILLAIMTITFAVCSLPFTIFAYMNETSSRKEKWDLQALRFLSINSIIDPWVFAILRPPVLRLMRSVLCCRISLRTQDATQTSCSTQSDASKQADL
Prostaglandin E2 receptor EP4 subtype, sequence (P35408 whole entry): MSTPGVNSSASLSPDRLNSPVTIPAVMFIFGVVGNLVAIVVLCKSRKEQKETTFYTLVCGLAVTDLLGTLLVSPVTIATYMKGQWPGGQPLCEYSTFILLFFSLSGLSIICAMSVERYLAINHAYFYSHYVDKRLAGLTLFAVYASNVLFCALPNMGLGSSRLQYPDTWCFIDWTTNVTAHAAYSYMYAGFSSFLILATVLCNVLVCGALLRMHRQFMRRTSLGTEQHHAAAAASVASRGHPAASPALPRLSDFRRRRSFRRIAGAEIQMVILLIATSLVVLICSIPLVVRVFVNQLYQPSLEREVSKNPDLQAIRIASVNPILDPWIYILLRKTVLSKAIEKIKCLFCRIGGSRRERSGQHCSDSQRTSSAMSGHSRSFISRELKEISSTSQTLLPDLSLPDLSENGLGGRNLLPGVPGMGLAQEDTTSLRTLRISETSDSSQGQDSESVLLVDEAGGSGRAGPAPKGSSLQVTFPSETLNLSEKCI

In the case of `C/C=C/c1nnn(Cc2ccc(C(F)(F)F)cc2)c1C(=O)N[C@@H](C)c1ccc(C(=O)O)cc1`, the AUC(0-inf) at 24 h [1] was 575 ng·h/mL, the inhibition in vivo at 150 mg/kg [2] was 63.8% and the inhibition in vivo at 16 mg/kg [3] was 24.6%. For the same compound, the pIC50 [4] was 9.40, the microsomal CLint at 1 h, 10 µM [5] was < 9.6 µL/min/mg and the half-life at 1 h, 10 µM [6] was > 2.42 h. The Cmax at 24 h [7] was 1200 ng/mL, the inhibition at 1 h, 20 µM [8] was 33% and the pIC50 [9] was < 5.00. For the same compound, the clearance at 24 h [10] was 28.3 mL/min/kg, the remaining at 1 h, 10 µM [11] was 82% and the microsomal CLint at 1 h, 10 µM [12] was < 9.6 µL/min/mg. For the same compound, the Vd at 24 h [13] was 10.2 L/kg, the bioavailability at 24 h [14] was 48% and the inhibition at 1 h, 20 µM [15] was 26%.
